In brackets after ≈: the same amount, converted by molar mass.
What was measured:
[1] = Aqueous solubility (High Throughput Method); assay type: physicochemical; conditions: McIlvaine buffer pH 6.8 with 2.5% DMSO, aqueous buffer, kinetic from dmso stock; McIlvaine buffer pH 6.8, 2.5% DMSO, 24 h shaking
Experimental: Assay for Determination of Aqueous Solubility (“High Throughput Method”)
Starting from a 10 mM DMSO stock solution, aliquots are diluted with acetonitrile/water (1/1) and McIlvaine buffer pH 6.8, respectively. After 24 h of shaking, the solutions or suspensions are filtered and analyzed by LC-UV. The amount dissolved in buffer is compared to the amount dissolved in the acetonitrile/water (1/1) solution. Solubility is measured from 0.001 to 0.125 mg/ml at a DMSO concentration of 2.5%. If more than 90% of the compound is dissolved in buffer, the value is marked with “>”.

[2] = Metabolic stability with human liver microsomes; assay type: in vitro ADME; conditions: pH 7.6; pooled human liver microsomes, 37° C., 1 μM test compound, 1 mg/ml microsomal protein, NADPH; read-out: t1/2 INVITRO
[3] = target: neutrophil elastase in human plasma (Homo sapiens (Human), UniProt P08246); experiment: Neutrophil elastase inhibitory activity in human plasma; assay type: biochemical; conditions: human plasma assay (zymosan-stimulated blood plasma), substrate 250 μM, pH 7.5
neutrophil elastase in human plasma, sequence (P08246 30-247): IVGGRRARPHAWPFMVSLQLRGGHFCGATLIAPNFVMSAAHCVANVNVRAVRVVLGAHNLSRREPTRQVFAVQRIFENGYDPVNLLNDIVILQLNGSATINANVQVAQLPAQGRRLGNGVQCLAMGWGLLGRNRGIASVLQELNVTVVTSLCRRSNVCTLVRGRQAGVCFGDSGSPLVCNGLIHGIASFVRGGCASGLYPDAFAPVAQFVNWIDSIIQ

[4] = Drug transport across human Caco-2 cells; assay type: in vitro ADME; conditions: human, Caco-2 monolayers, pH 7.2, 37° C.; for Papp A→B at 10 µM: apical-to-basal, read-out: PEAB; for Papp B→A at 10 µM: basal-to-apical, read-out: PEBA
Description: Assay for Determination of Drug Transport Across Human Caco-2 Cells
The assay provides information on the potential of a compound to pass the cell membrane, on the extent of oral absorption as well as on whether the compound is actively transported by uptake and/or efflux transporters. For the measurement of permeability across polarized, confluent human cancer colon carcinoma cells 2 (Caco-2) cell monolayers grown on permeable filter supports are used as the in vitro absorption model.
Apparent permeability coefficients (PE) of the compounds across the Caco-2 monolayers are measured (pH 7.2, 37° C.) in apical-to-basal (AB) (absorptive) and basal-to-apical (BA) (secretory) transport direction. AB permeability (PEAB) represents drug absorption from the intestine into the blood and BA permeability (PEBA) drug secretion from the blood back into the intestine via both passive permeability as well as active transport mechanisms mediated by efflux and uptake transporters that are expressed on the Caco-2 cells. The compounds are assigned to permeability/absorption classes by comparison of the AB permeabilities with the AB permeabilities of reference compounds with known in vitro permeability and oral absorption in the human. Identical or similar permeabilities in both transport directions indicate passive permeation, vectorial permeability points to additional active transport mechanisms. […] Active transport is concentration-dependently saturable.
Caco-2 cells (1-2*10^5 cells/cm^2 area) are seeded on filter inserts (Costar transwell polycarbonate or PET filters, 0.4 μm pore size) and cultured (DMEM) for 10 to 25 days. Compounds are dissolved in appropriate solvent (like DMSO, 1-20 mM stock solutions). Stock solutions are diluted with HTP-4 buffer (128.13 mM NaCl, 5.36 mM KCl, 1 mM MgSO4, 1.8 mM CaCl2, 4.17 mM NaHCO3, 1.19 mM Na2HPO4×7H2O, 0.41 mM NaH2PO4×H2O, 15 mM HEPES, 20 mM glucose, pH 7.2) to prepare the transport solutions (typically 10 μM compound, final DMSO<=0.5%). The transport solution (TL) is applied to the apical or basolateral donor side for measuring A-B or B-A permeability (3 filter replicates), respectively. The receiver side contains HTP-4 buffer supplemented with 2% BSA. Samples are collected at the start and end of experiment from the donor and at various time intervals for up to 2 hours also from the receiver side for concentration measurement by LC-MS/MS or scintillation counting. Sampled receiver volumes are replaced with fresh receiver solution.
The apparent permeability coefficients (PEAB and PEBA) of selected compounds in the Caco-2 drug transport assay described above are listed in Table 9.

[5] = target: Human neutrophil elastase (Homo sapiens (Human), UniProt P08246); experiment: Human Neutrophil Elastase Assay; assay type: biochemical; conditions: substrate MeOSuc-Ala-Ala-Pro-Val-AMC 250 μM, pH 7.5, room temperature
Human neutrophil elastase, sequence (P08246 30-247): as above

[6] = Metabolic stability with human hepatocytes; assay type: in vitro ADME; conditions: human hepatocyte suspension (typically cryopreserved), 1 μM test compound, six hours, scaled with well stirred model
Experimental: Assay for the Determination of Metabolic Stability with Human Hepatocytes
The metabolic degradation of the test compound is assayed in a human hepatocyte suspension. Human hepatocytes (typically cryopreserved) are incubated in an appropriate buffer system (e.g. Dulbecco's modified eagle medium plus 3.5 μg glucagon/500 mL, 2.5 mg insulin/500 mL and 3.75 mg/500 mL hydrocortison) containing 5% species serum. Following a (typically) 30 min preincubation in an incubator (37° C., 10% CO2), 5 μl of test compound solution (80 μM; from 2 mM stock solution in DMSO diluted 1:25 with medium) are added into 395 μl hepatocyte suspension (cell density in the range 0.25-5*10^6 cells/mL, typically 1*10^6 cells/mL; final concentration of test compound 1 μM, final DMSO concentration 0.05%). The cells are incubated for six hours (incubator, orbital shaker) and samples (25 μl) are taken at 0, 0.5, 1, 2, 4 and 6 hours. Samples are transferred into acetonitrile and pelleted by centrifugation (5 min) The supernatant is transferred to a new 96-deepwell plate, evaporated under nitrogen and resuspended. The decline of parent compound is analyzed by LC-MS/MS.
The intrinsic clearance CL_[…] is calculated as follows: CL_[…]=Dose/AUC=(C0/CD)/(AUD+clast/k)*1′000/60 (C0: initial concentration in the incubation [μM], CD: cell density of vital cells [10^6 cells/mL], AUD: area under the data [μM*h], clast: concentration of last data point [μM], k: slope of the regression line for parent decline [h^−1])
The calculated in vitro hepatic intrinsic clearance can be scaled up to the intrinsic in vivo hepatic clearance and used to predict hepatic in vivo blood clearance (CL) by the use of a liver model (well stirred model): CL_[…]_INVIVO [ml/min/kg]=(CL_[…] [μL/min/10^6 cells]*hepatocellularity [10^6 cells/g liver]*liver factor [g/kg bodyweight])/1′000 CL [ml/min/kg]=CL_[…]_INVIVO [ml/min/kg]*hepatic blood flow [ml/min/kg]/(CL_[…]_INVIVO [ml/min/kg]+hepatic blood flow [ml/min/kg]) Qh [%]=CL [ml/min/kg]/hepatic blood flow [ml/min/kg]) (Hepatocellularity, human: 120*10^6 cells/g liver; liver factor, human: 25.7 g/kg bodyweight; blood flow, human: 21 ml/(min*kg))

[7] = Aqueous solubility (Shaked Flask Method); assay type: physicochemical; conditions: aqueous buffer, thermodynamic from solid, pH 6.8 (McIlvaine buffer)
Experimental: Assay for Determination of Aqueous Solubility (“Shaked Flask Method”)
Saturated solutions are prepared in well plates by adding an appropriate volume of selected aqueous media (typically in the range of 0.25-1.5 ml) into each well which contains a known quantity of solid drug substance (typically in the range 0.5-5.0 mg). The wells are shaken or stirred for a predefined time period (typically in a range of 2-24 h) and then filtered using appropriate filter membranes (typically PTFE-filters with 0.45 μm pore size). Filter absorption is avoided by discarding the first few drops of filtrate. The amount of dissolved drug substance is determined by UV spectroscopy or by HPLC with UV-detection. In addition, the pH of the aqueous saturated solution is measured using a glass-electrode pH meter.

Row | Compound | solubility at 24 h [1] [µg/mL] | half-life at 1 μM [2] [h] | IC50 [3] [nM] | Papp A→B at 10 µM [4] [×10⁻⁶ cm/s] | Papp B→A at 10 µM [4] [×10⁻⁶ cm/s] | IC50 [5] [nM] | CLhep predicted at 1 μM [6] [mL/min/kg] | solubility [7] [µg/mL]
1 | N#Cc1ccc([C@H]2NC(=O)N(c3cccc(C(F)F)c3)C3=C2C(=O)NCC3)cc1 [Example 2A, (R)-4-(1-(3-(Difluoromethyl)phenyl)-2,5-dioxo-1,2,3,4,5,6,7,8-octahydropyrido[4,3-d]-pyrimidin-4-yl)benzonitrile] | > 92 | > 2.17 | 5.4 | 4.7 | 31 | 3.2 | – | –
2 | CN1CCC2=C(C1=O)[C@@H](c1ccc(C#N)cc1)NC(=O)N2c1cccc(C(F)(F)F)c1 [Example 4A, (R)-4-(6-Methyl-2,5-dioxo-1-(3-(trifluoromethyl)phenyl)-1,2,3,4,5,6,7,8-octahydropyrido[4,3-d]pyrimidin-4-yl)benzonitrile] | > 89 | > 2.17 | 2.7 | 17 | 34 | 1.3 | – | –
3 | CN1C(=O)N(c2cccc(C(F)(F)F)c2)C2=C(C(=O)NCC2)[C@H]1c1ccc(C#N)cc1 [Example 6, (R)-4-(3-Methyl-2,5-dioxo-1-(3-(trifluoromethyl)phenyl)-1,2,3,4,5,6,7,8-octahydropyrido[4,3-d]pyrimidin-4-yl)benzonitrile] | > 88 | > 2.17 | 1 | 37 | 80 | < 1 | – | –
4 | CN1C(=O)N(c2cccc(C(F)F)c2)C2=C(C(=O)NCC2)[C@H]1c1ccc(C#N)cc1 [Example 8A, (R)-4-(1-(3-(Difluoromethyl)phenyl)-3-methyl-2,5-dioxo-1,2,3,4,5,6,7,8-octahydropyrido[4,3-d]pyrimidin-4-yl)benzonitrile] | 61 (≈ 149 µM) | > 2.17 | < 1 | 20 | 97 | < 1 | 2 | –
5 | COC(=O)CN1C(=O)N(c2cccc(C(F)(F)F)c2)C2=C(C(=O)NCC2)C1c1ccc(C#N)cc1 (stereo not drawn) [Example 9, Methyl 2-(4-(4-Cyanophenyl)-2,5-dioxo-1-(3-(trifluoromethyl)phenyl)-1,2,5,6,7,8-hexahydropyrido[4,3-d]pyrimidin-3(4H)-yl)acetate] | 88 (≈ 182 µM) | > 2.17 | 3.1 | 6.1 | 63 | 2.3 | – | –
6 | CN1C(=O)N(c2cccc(C(F)(F)F)c2)C2=C(C(=O)NCC2)C1c1ccc(C#N)cc1-c1ccncn1 (stereo not drawn) [Example 35, 4-{3-Methyl-2,5-dioxo-1-[3-(trifluoromethyl)phenyl]-1H,2H,3H,4H,5H,6H,7H,8H-pyrido[4,3-d]pyrimidin-4-yl}-3-(pyrimidin-4-yl)benzonitrile] | 84 (≈ 167 µM) | > 2.17 | < 1 | 5.7 | 100 | < 1 | 1 | –
7 | CN1CCC2=C(C1=O)C(c1ccc(C#N)cc1-c1cnn(C)c1)N(C)C(=O)N2c1cccc(C(F)(F)F)c1 (stereo not drawn) [Example 36, 4-{3,6-Dimethyl-2,5-dioxo-1-[3-(trifluoromethyl)phenyl]4H,2H,3H,4H,5H,6H,7H,8H-pyrido[4,3-d]pyrimidin-4-yl}-3-(1-methyl-1H-pyrazol-4-yl)benzonitrile] | 42 (≈ 80.7 µM) | > 2.17 | 2.3 | 30 | 83 | < 1 | – | ≥ 10
8 | CN1CCC2=C(C1=O)C(c1ccc(C#N)cc1C(N)=O)N(C)C(=O)N2c1cccc(C(F)(F)F)c1 (stereo not drawn) [Example 39, 5-Cyano-2-{3,6-dimethyl-2,5-dioxo-1-[3-(trifluoromethyl)phenyl]-1H,2H,3H,4H,5H,6H,7H,8H-pyrido[4,3-d]pyrimidin-4-yl}benzamide] | 78 (≈ 161 µM) | > 2.17 | < 1 | 4.2 | 59 | < 1 | – | –
9 | CN1C(=O)N(c2cccc(C(F)(F)F)c2)C2=C(C(=O)NCC2)C1c1ccc(C#N)cc1S(C)(=O)=O (stereo not drawn) [Example 40, 3-Methanesulfonyl-4-{3-methyl-2,5-dioxo-1-[3-(trifluoromethyl)phenyl]-1H,2H,3H,4H,5H,6H,7H,8H-pyrido[4,3-d]pyrimidin-4-yl}benzonitrile] | – | > 2.17 | < 1 | 17 | 87 | < 1 | 1 | –
